Where a name gives a salt, the structure may show the parent alone. Marks after values point to notes of the source that are not given here.
Experiments:
mice [1] = assay: Inducing the mice to sleep by a subthreshold dose of pentobarbital sodium; assay type: in vivo, Kunming mice; details: Estazolam 2 mg/kg; pentobarbital sodium 30 mg/kg ip; n = 20
Description: Eighty Kunming mice, half males and half females, were fasted for 12 h but free to drink water. The mice were randomly divided into four groups: a blank control group, a low does Compound group (0.4 g/kg, ig), a high dose Compound group (0.8 g/kg, ig) and a positive drug control group (Estazolam, 2 mg/kg). each group of mice was administered according to the above doses (ig), and the blank control group was given the same volume of normal saline. Forty-five minutes later, each mouse was given (ip) 30 mg/kg pentobarbital sodium, and the number of mice falling asleep within 15 min was recorded by taking the absence of righting reflex more than 1 min as the indicator of falling asleep.

mice [2] = assay: Mouse spontaneous activity test; assay type: in vivo, Kunming mice
Description: Forty Kunming mice, half males and half females, were fasted for 12 h but free to drink water. The mice were randomly divided into four groups: a blank control group, a low does Compound group (0.4 g/kg, ig), a high dose Compound group (0.8 g/kg, ig) and a positive drug control group (Estazolam, 2 mg/kg). The mice were placed into the YLS-1A multifunctional recorder for spontaneous activities of small animals. After 5 minutes of adaptation, the number of the mice's spontaneous activities before administration were recorded, and the recording lasted for 10 minutes. The room was kept quiet during recording, at a room temperature of 20-24° C. After this, each group of mice was administered according to the above doses, and the number of spontaneous activities within 10 min were recorded 45 min later. The blank control group was given the same volume of normal saline (ig).

rats = assay: Physical dependence test: induced withdrawal test for the rats; details: morphine hydrochloride sc twice a day, increasing 5 to 60 mg/kg, 7 days; naloxone 5 mg/kg ip day 8
Description: The compound group was administered (ig) twice a day according to the dose increasing principle, at daily doses of 0.5, 1.0, 1.5, 2.0, 2.5, 3.0 g/kg. The dose was increased every day from 0.5 g/kg to 3.0 g/kg on day 6 which was adopted the same on day 7. The negative control group was given (ig) the same volume of vegetable oil per day at the same time and for the same times as the compound group. On day 8, the rats in each group were given naloxone (5 mg/kg, ip) to induce withdrawal, and the withdrawal status of the rats within 30 min and the weight change one hour before and after the inducement were observed. The evaluation criteria of withdrawal symptoms of rats were established by referring to the Tomoji Yanagita evaluation criteria and our pre-experimental results (see Appendix Table 17). The withdrawal scores and weight loss values of each group of rats were statistically processed. Weight loss value=weight before inducement−weight after inducement.

mice [3] = assay: Physical dependence test: induced withdrawal test for the mice; details: morphine hydrochloride sc twice a day, increasing 25 to 150 mg/kg daily, 7 days, naloxone 8 mg/kg ip
Description: The daily doses were 25, 50, 75, 100, 125, 150 mg/kg according to the dose increasing principle, increased day by day, reached 150 mg/kg on day 6 which was adopted the same on day 7. The compound group was administered (ig) twice daily (8:00 am, 8:00 pm) at daily doses of 0.6, 1.2, 1.8, 2.4, 3.0, 3.6 g/kg. The dose increased every day from 0.6 g/kg to 3.6 g/kg on day 6 which was adopted the same on day 7. The negative control group was given (ig) the same volume of vegetable oil every day at the same time and for the same times as the compound group. On day 7, naloxone (8 mg/kg, ip) was given to each group of mice to induce withdrawal. The jump reaction within 30 min and weight change one hour before and after inducement were observed. Weight loss value=weight before inducement−weight after inducement.

morphine-dependent mice = assay: Therapeutic effect on naloxone-induced withdrawal symptoms of morphine-dependent mice; assay type: in vivo, Kunming mice; details: methadone 20 mg/kg ig
Description: The model of morphine-dependent mice was replicated by the dose-increasing method. […] Group (1) was a blank control group, injected subcutaneously (sc) with normal saline (0.2 ml/10 g), and groups (2)˜(5) were used to replicate the model of morphine-dependent mice by the dose-increasing method.
The administration continued for 3 days for each group. Mice were free to drink and eat. Naloxone (8.0 mg/kg, ip) was given 1 h after administrations on d1 and d3 during the treatment to induce withdrawal symptoms, and jumping reaction in 30 min and body weights before and after the inducement were observed.

mice [4] = assay: Acetic acid writhing test of mice; assay type: in vivo, Kunming mice; details: methadone 20 mg/kg, delivery route im; 0.6% acetic acid ip; in 20 min
Description: Forty Kunming mice, male, were fasted for 12 h before the experiment but free to drink water. They were randomly divided into 4 groups: a blank control group, a low dose Compound group, a high dose Compound group, and a positive control group. […] The mice were administered (ig) at a low dose (0.4 g/kg) and a high dose (0.8 g/kg) of the compound, at a volume of 0.2 ml per 10 g body weight. The positive control group was administered (ip) methadone (20 mg/kg) and the blank control group was given (ig) the same volume of normal saline. Forty-five minutes after administration, each mouse was given (ip) 0.6% acetic acid, 0.2 ml for each. The mice were then observed for writhing reaction, with abdominal contraction and hind limb extension or hip elevation regarded as positive. Times of writhing in 20 min were recorded starting from 5 min after acetic acid injection. The analgesic effect was evaluated by taking completely inhibiting writhing reaction induced by acetic acid as an indicator.

[5] = system: morphine-induced place preference of mice; assay: Conditioned place preference of morphine-induced mice; assay type: in vivo, Kunming mice
Description: The mice were acclimatized for 3 days, the natural place preference time of the mice was measured before the administration, so that the mice with obvious preference on one cuboid of the experimental box were excluded to clear the effect of unconditional place preference on the results. […] The observation was conducted under sound insulation conditions. […] Thus, the white cuboid was used as the non-preferred side (i.e., the companion box).
After 6 consecutive days of training and administration, the mice developed conditioned place preference.
Each group was administered for 3 consecutive days.

mice [6] = assay: Hot plate test of analgesic effect; assay type: in vivo, Kunming mice; details: hot plate 55° C.; for Pain threshold: methadone 20 mg/kg, cut-off 60 seconds
Description: Kunming mice, female, were selected. And a selection among them was conducted prior to the test. The hot plate was adjusted to 55° C.±0.5° C., the female mice were placed on the hot plate, and the duration (in seconds) required from placing the mice on the hot plate until the mice licked their feet as the normal pain threshold of the mice. All those who licked their feet within 5 s or after 30 s and jumped were abandoned. Forty qualified mice were selected and randomly divided into 4 groups: a blank control group, a low dose Compound group, a high dose Compound group, and a positive control group, 10 mice per group. The normal pain threshold of each mouse was measured repeatedly, and the average of two measurements was taken as the pre-administration pain threshold of the mouse. Each group was then administered (at doses and by delivery routes as above), 0.2 ml per 10 g body weight. The pain threshold of each group was measured 60 min and 120 min after administration. If a mouse remained unresponsive for more than 60 seconds on the hot plate, its pain threshold was calculated as 60 seconds.

Clc1ccc2c(c1)C(c1ccccc1)=NCc1nncn1-2 [Estazolam, reference compound]
Number of the mice showing disappearance of righting reflex (mice [1]): 18 per group
Number of spontaneous activities (mice [2]; After administration (45 min), Estazolam 2 mg/kg): 45.4 ± 34.43**^ΔΔ per 10 min
Number of spontaneous activities (mice [2]; Before administration, Estazolam group): 136.6 ± 43.35 per 10 min

CN1CC[C@]23c4c5ccc(O)c4O[C@H]2[C@@H](O)C=C[C@H]3[C@H]1C5.Cl [Morphine, Morphine hydrochloride, reference compound]
Induced withdrawal symptom score (rats): 76.9 ± 14.53
Weight loss (mice [3]): 0.57 ± 0.25 g
Number of jumps (mice [3]; 30 min): 64.10 ± 15.29

CCC(=O)C(CC(C)N(C)C)(c1ccccc1)c1ccccc1 (stereo not drawn) [methadone, Methadone hydrochloride, reference compound]
Numbers of jumping reactions of mice (mice of n = 10) (morphine-dependent mice; d 1): 10
Numbers of jumping reactions of mice, percentage (morphine-dependent mice; d 1): 100%
Weight change: body weights of mice before and after induced withdrawal (morphine-dependent mice; d 1): 0.22 ± 0.19 g
Numbers of jumping reactions of mice (mice of n = 10) (morphine-dependent mice; d 3): 10
Numbers of jumping reactions of mice, percentage (morphine-dependent mice; d 3): 100%
Weight change: body weights of mice before and after induced withdrawal (morphine-dependent mice; d 3): 0.46 ± 0.23 g
Times of writhing (mice [4]): 8.7 ± 3.74
Duration of mice staying in companion box ([5]; After administration, methadone 20 mg/kg ig 3 days + morphine 9 mg/kg sc, 15 min observation): 499.6 ± 123.26*^ΔΔ s
Duration of mice staying in companion box ([5]; Before administration (base line), methadone 20 mg/kg + morphine 9 mg/kg group): 333.7 ± 114.95 s
Pain threshold (mice [6]; 60 min): 58.4 ± 9.05 s
Pain threshold (mice [6]; 120 min): 51.5 ± 10.11 s
Pain threshold before administration (mice [6]; base line, methadone group): 24.4 ± 5.72 s

Source: patent US11000555B2, “Method for preparing a limax compound and therapeutic use thereof” (GUANGXI JIUFU BIOTECHNOLOGY CO., LTD, priority 2017, dated 2021)
